# Source: US8791132B2, “Compounds and methods for treatment of hypertension” (Medivation Technologies, Inc., priority 2011, dated 2014)
# Read-outs that look alike come from different tables or passages of the source.
# Legend:
# [1] = target: T1, rat adrenergic α1B receptor (Rattus norvegicus, UniProt P15823); assay: Radioligand binding, adrenergic α1B ([3H]Prazosin); details: [3H]Prazosin
# T1 construct: rat adrenergic α1B receptor obtained from Wistar Rat liver; from tissue; host or cells: Wistar rat liver
# T1 sequence (P15823 1-515): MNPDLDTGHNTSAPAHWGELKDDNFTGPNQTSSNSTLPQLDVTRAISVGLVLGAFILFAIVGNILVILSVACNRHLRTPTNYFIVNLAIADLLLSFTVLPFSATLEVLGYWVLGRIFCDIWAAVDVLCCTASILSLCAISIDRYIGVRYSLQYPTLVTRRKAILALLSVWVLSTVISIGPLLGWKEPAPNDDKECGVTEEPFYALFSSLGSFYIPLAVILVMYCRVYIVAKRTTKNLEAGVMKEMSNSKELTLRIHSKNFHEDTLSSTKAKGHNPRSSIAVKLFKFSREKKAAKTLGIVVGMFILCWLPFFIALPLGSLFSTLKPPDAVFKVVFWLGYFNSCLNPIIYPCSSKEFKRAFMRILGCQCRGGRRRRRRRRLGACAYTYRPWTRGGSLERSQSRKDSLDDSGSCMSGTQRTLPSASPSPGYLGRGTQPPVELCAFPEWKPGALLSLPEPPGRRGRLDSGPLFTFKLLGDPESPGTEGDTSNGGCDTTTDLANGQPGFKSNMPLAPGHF
# Procedure, shortened: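 Specific binding, taken as total minus that remaining with 10 μM phentolamine, is measured after filtration and counting. Rat liver receptor preparation and 0.25 nM [3H]prazosin are incubated with compound in 50 mM Tris-HCl (pH 7.4, 0.5 mM EDTA) at 25° C for 60 min. Activity is reported as percent inhibition.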
# [2] = target: T2, human recombinant adrenergic α1D receptor (Homo sapiens, UniProt P25100); assay: Radioligand binding, adrenergic α1D ([3H]Prazosin); details: [3H]Prazosin
# T2 construct: expressed in transfected cells; host or cells: HEK-293
# T2 sequence (P25100 1-572): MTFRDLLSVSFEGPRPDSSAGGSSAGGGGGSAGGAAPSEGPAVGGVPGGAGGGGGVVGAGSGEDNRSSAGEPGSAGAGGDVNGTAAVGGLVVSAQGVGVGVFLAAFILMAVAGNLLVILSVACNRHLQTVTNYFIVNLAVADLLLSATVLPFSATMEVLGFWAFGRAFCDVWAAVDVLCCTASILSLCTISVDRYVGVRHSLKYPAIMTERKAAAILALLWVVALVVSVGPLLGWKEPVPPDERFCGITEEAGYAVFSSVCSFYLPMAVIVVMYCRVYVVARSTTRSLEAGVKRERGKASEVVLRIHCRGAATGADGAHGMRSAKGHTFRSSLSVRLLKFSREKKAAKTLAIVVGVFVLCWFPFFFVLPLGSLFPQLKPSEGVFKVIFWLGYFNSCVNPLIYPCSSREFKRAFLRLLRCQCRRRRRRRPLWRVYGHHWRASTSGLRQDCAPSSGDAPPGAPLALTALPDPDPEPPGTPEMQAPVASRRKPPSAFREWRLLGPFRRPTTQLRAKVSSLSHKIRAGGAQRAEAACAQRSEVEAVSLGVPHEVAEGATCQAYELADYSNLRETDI
# Method: Compounds were incubated with 0.6 nM [3H]Prazosin for 60 min at 25° C. Non-specific binding was estimated in the presence of 10 μM phentolamine. Receptor proteins were filtered and washed, the filters were then counted to determine [3H]Prazosin specifically bound. […] Biochemical assay results are presented as the percent inhibition of specific binding in Table B1.
# [3] = target: T3, human recombinant adrenergic α2A receptor (Homo sapiens, UniProt P08913); assay: Radioligand binding, adrenergic α2A ([3H]MK-912); details: [3H]MK-912
# T3 construct: expressed in transfected cells; host or cells: insect Sf9 cells
# T3 sequence (P08913 1-465): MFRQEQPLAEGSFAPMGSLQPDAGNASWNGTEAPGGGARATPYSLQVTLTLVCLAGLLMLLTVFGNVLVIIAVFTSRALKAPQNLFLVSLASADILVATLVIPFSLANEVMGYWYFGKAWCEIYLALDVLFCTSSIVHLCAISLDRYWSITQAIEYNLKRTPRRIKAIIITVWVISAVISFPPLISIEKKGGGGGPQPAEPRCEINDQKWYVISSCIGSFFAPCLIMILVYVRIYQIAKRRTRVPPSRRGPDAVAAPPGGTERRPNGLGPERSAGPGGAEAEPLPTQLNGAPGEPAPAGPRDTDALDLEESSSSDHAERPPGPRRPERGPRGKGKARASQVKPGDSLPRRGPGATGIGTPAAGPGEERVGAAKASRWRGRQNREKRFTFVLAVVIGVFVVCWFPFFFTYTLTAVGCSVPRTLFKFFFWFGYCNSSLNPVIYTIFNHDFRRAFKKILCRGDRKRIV
# Procedure, shortened: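 Displacement of 1 nM [3H]MK-912 from receptor produced in insect Sf9 cells was measured after 60 min at 25 °C. Readout: percent inhibition of specific binding.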
# [4] = target: T4, human recombinant adrenergic α2B receptor (Homo sapiens, UniProt P18089); assay: Radioligand binding, adrenergic α2B ([3H]Rauwolscine); details: [3H]Rauwolscine
# T4 construct: expressed in transfected cells; host or cells: CHO-K1
# T4 sequence (P18089 1-450): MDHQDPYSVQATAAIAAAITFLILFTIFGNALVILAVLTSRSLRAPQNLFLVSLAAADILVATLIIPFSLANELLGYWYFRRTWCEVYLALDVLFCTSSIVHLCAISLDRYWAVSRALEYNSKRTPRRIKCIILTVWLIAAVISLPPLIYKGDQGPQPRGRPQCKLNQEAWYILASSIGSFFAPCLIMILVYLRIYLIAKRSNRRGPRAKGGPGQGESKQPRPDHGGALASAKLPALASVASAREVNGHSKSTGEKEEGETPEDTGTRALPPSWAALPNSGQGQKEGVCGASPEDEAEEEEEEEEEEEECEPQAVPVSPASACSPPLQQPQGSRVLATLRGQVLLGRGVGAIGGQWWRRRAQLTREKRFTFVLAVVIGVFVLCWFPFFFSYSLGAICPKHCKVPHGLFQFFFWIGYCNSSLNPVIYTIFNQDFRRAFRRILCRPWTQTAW
# Procedure, shortened: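 Values are percent inhibition of specific radioligand binding. The receptor, expressed in CHO-K1 cells, was exposed to 2.5 nM [3H]Rauwolscine at 25° C for 60 min, with 10 μM Prazosin marking non-specific binding.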
# [5] = read-out: Percentage inhibition of ligand binding, Adrenergic α1B (0.1 μM), compound at 0.1 μM, repeat datapoints each shown
# [6] = read-out: Percentage inhibition of ligand binding, Adrenergic α1D (0.1 μM), compound at 0.1 μM, repeat datapoints each shown
# [7] = read-out: Percentage inhibition of ligand binding, Adrenergic α2A (0.1 μM), compound at 0.1 μM, repeat datapoints each shown
# [8] = read-out: Percentage inhibition of ligand binding, Adrenergic α2B (0.1 μM), compound at 0.1 μM, repeat datapoints each shown
# [9] = compound at 0.1 μM, repeat assays, each datapoint shown, read-out: Percentage inhibition of ligand binding, Adrenergic α1B
# [10] = compound at 0.1 μM, repeat assays, each datapoint shown, read-out: Percentage inhibition of ligand binding, Adrenergic α1D
# [11] = compound at 0.1 μM, repeat assays, each datapoint shown, read-out: Percentage inhibition of ligand binding, Adrenergic α2A
# [12] = compound at 0.1 μM, repeat assays, each datapoint shown, read-out: Percentage inhibition of ligand binding, Adrenergic α2B
SMILES,"inhibition at 0.1 µM [1, 5]","inhibition at 0.1 µM [2, 6]","inhibition at 0.1 µM [3, 7]","inhibition at 0.1 µM [4, 8]","inhibition at 0.1 µM [1, 9]","inhibition at 0.1 µM [2, 10]","inhibition at 0.1 µM [3, 11]","inhibition at 0.1 µM [4, 12]"
"Cc1cnc2c(c1)c1c(n2CCc2ccc(C(F)(F)F)nc2)CCN(C)C1 [II-119, 3,6-dimethyl-9-(2-(6-(trifluoromethyl)pyridin-3-yl)ethyl)-6,7,8,9-tetrahydro-5H-pyrrolo[2,3-b:4,5-c′]dipyridine]",23%,53%,-4%,27%,–,–,–,–
CCC1c2c(c3cc(Cl)ccc3n2CC(C)(O)c2ccc(F)cc2)CCN1C (stereo not shown) [II-161],7%,2%,7%,13%,–,–,–,–
COc1ccc(C(C)(O)Cn2c3c(c4cc(C)ccc42)CN(C)CC3)cc1F (stereo not shown) [II-163],66%,28%,41%,86%,–,–,–,–
COc1ccc(C(C)(O)Cn2c3c(c4cc(Cl)ccc42)C2CCC(C3)N2C)cc1F (stereo not shown) [II-164],12%,0%,15%,40%,–,–,–,–
CN1CCc2c(c3ccccc3n2CC(C)(O)c2ccncc2)C1 (stereo not shown) [II-171],95%,55%,96%,94%,–,–,–,–
Cc1ccc(CCn2c3c(c4cccnc42)CN2CCCC2C3)cn1 (stereo not shown) [II-234],-8%,-1%,7%,33%,–,–,–,–
Cc1cnc2c(c1)c1c(n2CCc2ccc(C)nc2)CC2CCCN2C1 (stereo not shown) [II-235],58%,28%,3%,45%,–,–,–,–
Cc1ccc(CCn2c3c(c4cccnc42)C2CCCN2CC3)cn1 (stereo not shown) [IV-4],2%,15%,-3%,56%,–,–,–,–
CN1CCc2c(c3cc(Cl)ccc3n2CC(C)(O)c2ccncc2)C1 (stereo not shown) [compound 1],–,–,–,–,32%,16%,6%,74%
Cc1ccc2c(c1)c1c(n2CC(C)(O)c2ccc(C)nc2)CCN(C)C1 (stereo not shown) [compound 29],–,–,–,–,24%,1%,10%,100%
